The record followed here is US20240150356A1, “Pyrimidine amide compounds and use thereof” (ALPHALA CO., LTD., priority 2019, published 2024).

In general, LC50 refers to the concentration lethal to half of the exposed cells or organisms.

Molecules are shown by their SMILES. Where only a bound is given, the exact number is not on record here.

In the test the test system is Hep3B cells (hepatocellular carcinoma cell line). Description: In vitro MTS cell viability assay (NCI-60 methodology), Hep3B. Format: cell-based. The conditions noted are these: Homo sapiens, 48 h, Table 10, MTS, 2 days drug incubation, 50% reduction vs time zero, read-out: Hep3B LC50. The method, boiled down: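 Hep3B cells given five 2-fold dilutions of compound for 2 days, with viability by MTS measured at time zero and at end. LC50 is the concentration giving a 50% fall in viable cells relative to the start of treatment, per NCI-60 formula.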
In general terms: Formazan colour is commonly taken as a measure of viable cells.
Take `O=C(Nc1nc(-c2ccc3c(c2)OCCO3)nc2c1cnn2C1CCCCC1)c1ccc([N+](=O)[O-])s1` [Compound 10-37, N-(1-cyclohexyl-6-(2,3-dihydrobenzo[b][1.4]dioxin-6-yl)-1H-pyrazolo[3,4-d]pyrimidin-4-yl)-5-nitrothiophene-2-carboxamide]: the LC50 is 1940 nM.

Turning to `O=C(Nc1nc(-c2ccc(F)cc2F)nc2c1cnn2C1CCCCC1)c1ccc([N+](=O)[O-])s1` [Compound 10-39], the LC50 came to 1240 nM.

As for `O=C(Nc1nc(-c2cc(F)cc(F)c2)nc2c1cnn2C1CCCCC1)c1ccc([N+](=O)[O-])s1` [Compound 10-41], the median lethal concentration (LC50) came out at 790 nM.

In the case of `O=C(Nc1nc(-c2ccc(Cl)cc2Cl)nc2c1cnn2C1CCCCC1)c1ccc([N+](=O)[O-])s1` [Compound 10-42], the 50% lethal concentration (LC50) was more than 1250 nM.

`O=C(Nc1nc(-c2ccc(Cl)c(Cl)c2)nc2c1cnn2C1CCCCC1)c1ccc([N+](=O)[O-])s1` [Compound 10-43, N-(1-cyclohexyl-6-(3,4-dichlorophenyl)-1H-pyrazolo[3,4,d]pyrimidin-4-yl)-5-nitrothiophene-2-carboxamide]: the LC50 worked out at 770 nM.

On to `CCOc1ccc(-c2nc(NC(=O)c3ccc([N+](=O)[O-])s3)c3cnn(C4CCCCC4)c3n2)cc1Cl` [Compound 10-44], for which the LC50 was more than 2000 nM.

For `O=C(Nc1nc(-c2ccc(Cl)cc2F)nc2c1cnn2C1CCCCC1)c1ccc([N+](=O)[O-])s1` [Compound 10-45, N-(6-(4-chloro-2-fluorophenyl)-1-cyclohexyl-1H-pyrazolo[3,4-d]pyrimidin-4-yl)-5-nitrothiophene-2-carboxamide], the median lethal concentration (LC50) was 870 nM.

Regarding `O=C(Nc1nc(-c2ccc(F)cc2Cl)nc2c1cnn2C1CCCCC1)c1ccc([N+](=O)[O-])s1` [Compound 10-46, N-(6-(2-chlor-4-fluorophenyl)-1-cyclohexyl-1H-pyrazolo[3,4-d]pyrimidin-4-yl)-5-nitrothiophene-2-carboxamide], the LC50 turned out to be 1030 nM.

Take `O=C(Nc1nc(-c2cc(Cl)ccc2F)nc2c1cnn2C1CCCCC1)c1ccc([N+](=O)[O-])s1` [Compound 10-47, N-(6-(5-chloro-2-fluorophenyl)-1-cyclohexyl-1H-pyrazolo[3,4-d]pyrimidin-4-yl)-5-nitrothiophene-2-carboxamide]: the LC50 came out at 630 nM.

In the case of `COc1ccc(-c2nc(NC(=O)c3ccc([N+](=O)[O-])s3)c3cnn(C4CCCCC4)c3n2)cc1OC` [Compound 10-48, N-(1-cyclohexyl-6-(3,4-dimethoxyphenyl)-1H-pyrazolo[3,4-d]pyrimidin-4-yl)-5-nitrothiophene-2-carboxamide], the median lethal concentration (LC50) turned out to be 970 nM.

With `O=C(Nc1nc(-c2ccc(OCC(F)(F)F)nc2)nc2c1cnn2C1CCCCC1)c1ccc([N+](=O)[O-])s1` [Compound 10-49, N-(1-cyclohexyl-6-(6-(2,2,2-trifluoroethoxy)pyridin-3-yl)-1H-pyrazolo[3,4-d]pyrimidin-4-yl)-5-nitrothiophene-2-carboxamide], the LC50 amounted to 630 nM.

`COCCOc1ccc(-c2nc(NC(=O)c3ccc([N+](=O)[O-])s3)c3cnn(C4CCCCC4)c3n2)cc1` [Compound 10-50, N-(1-cyclohexyl-6-(4-(2-methoxyethoxy)phenyl)-1H-pyrazolo[3,4-d]pyrimidin-4-yl)-5-nitrothiophene-2-carboxamide]: the LC50 worked out at 2640 nM.

On to `COCCOc1ccc(-c2nc(NC(=O)c3ccc([N+](=O)[O-])s3)c3cnn(C4CCCCC4)c3n2)cn1` [Compound 10-51, N-(1-cyclohexyl-6-(6-(2-methoxyethoxy)pyridin-3-yl)-1H-pyrazolo[3,4-d]pyrimidin-4-yl)-5-nitrothiophene-2-carboxamide], for which the LC50 was determined as 960 nM.

Take `O=C(Nc1nc(-c2ccc(OCC(F)(F)C(F)F)nc2)nc2c1cnn2C1CCCCC1)c1ccc([N+](=O)[O-])s1` [Compound 10-52, N-(1-cyclohexyl-6-(6-(2,2,3,3-tetrafluoropropoxy)pyridin-3-yl)-1H-pyrazolo[3,4-d]pyrimidin-4-yl)-5-nitrothiophene-2-carboxamide]: the median lethal concentration (LC50) turned out to be 420 nM.

Turning to `CCOCCOCCOc1ccc(-c2nc(NC(=O)c3ccc([N+](=O)[O-])s3)c3cnn(C4CCCCC4)c3n2)cn1` [Compound 10-53, N-(1-cyclohexyl-6-(6-(2-(2-ethoxyethoxy)ethoxy)pyridin-3-yl)-1H-pyrazolo[3,4-d]pyrimidin-4-yl)-5-nitrothiophene-2-carboxamide], the LC50 was 1230 nM.

As for `O=C(Nc1nc(-c2ccc(F)cc2)nc2c1cnn2C1CCC(F)(F)CC1)c1ccc([N+](=O)[O-])s1` [Compound 10-54, N-(1-(4,4-difluorocyclohexyl)-6-(4-fluorphenyl)-1H-pyrazolo[3,4-d]pyrimidin-4-yl)-5-nitrothiophene-2-carboxamide], the LC50 was 920 nM.

Consider `O=C(Nc1nc(-c2ccc(Cl)cc2)nc2c1cnn2C1CCC(F)(F)CC1)c1ccc([N+](=O)[O-])s1` [Compound 10-56, N-(6-(4-chlorophenyl)-1-(4,4-difluorocyclohexyl)-1H-pyrazolo[3,4,d]pyrimidin-4-yl)-5-nitrothiophene-2-carboxamide], for which the LC50 worked out at 770 nM.

With `O=C(Nc1nc(-c2ccc(C(F)(F)F)cc2)nc2c1cnn2C1CCC(F)(F)CC1)c1ccc([N+](=O)[O-])s1` [Compound 10-58, N-(1-(4,4-difluorocyclohexyl)-6-(4-(trifluoromethyl)phenyl)-1H-pyrazolo[3,4-d]pyrimidin-4-yl)-5-nitrothiophene-2-carboxamide], the 50% lethal concentration (LC50) turned out to be 610 nM.

`CCOc1ccc(-c2nc(NC(=O)c3ccc([N+](=O)[O-])s3)c3cnn(C4CCC(F)(F)CC4)c3n2)cc1` [Compound 10-59, N-(1-(4,4<fluorocyclohexyl)-4-(4-ethoxyphenyl)-1H-pyrazolo[3,4-d]pyrimidin-4-yl)-5-nitrothiophene-2-carboxamide]: the LC50 amounted to 1280 nM.

Take `CCCOc1ccc(-c2nc(NC(=O)c3ccc([N+](=O)[O-])s3)c3cnn(C4CCC(F)(F)CC4)c3n2)cc1` [Compound 10-60, N-(1-(4,4-difluorocyclohexyl)-6-(4-propoxyphenyl)-1H-pyrazolo[3,4-d]pyrimidin-4-yl)-5-nitrothiophene-2-carboxamide]: the LC50 turned out to be 830 nM.

Regarding `CC1(C)CCC(n2ncc3c(NC(=O)c4ccc([N+](=O)[O-])s4)nc(-c4ccc(F)cc4)nc32)CC1` [Compound 10-61], the LC50 was found to be 550 nM.

`CC1(C)CCC(n2ncc3c(NC(=O)c4ccc([N+](=O)[O-])s4)nc(-c4ccc(F)nc4)nc32)CC1` [Compound 10-62, N-(1-(4,4-dimethylcyclohexyl)-6-(6-fluoropyridin-3-yl)-1H-pyrazolo[3,4-d]pyrimidin-4-yl)-5-nitrothiophene-2-carboxamide]: the LC50 amounted to 710 nM.

Take `CC1(C)CCC(n2ncc3c(NC(=O)c4ccc([N+](=O)[O-])s4)nc(-c4ccc(Cl)cc4)nc32)CC1` [Compound 10-63, N-(6(4-chlorophenyl)-1-(4,4-dimethylcyclohexyl)-1H-pyrazolo[3,4-d]pyrimidin-4-yl)-5-nitrothiophene-2-carboxamide]: the LC50 was determined as 860 nM.

`CC1(C)CCC(n2ncc3c(NC(=O)c4ccc([N+](=O)[O-])s4)nc(-c4ccc(Cl)nc4)nc32)CC1` [Compound 10-64, N-(6-(6-chloropyridin-3-yl)-1-(4,4-dimethylcyclohexyl)-1H-pyrazolo[3,4-d]pyrimidin-4-yl)-5-nitrothiophene-2-carboxamide]: the median lethal concentration (LC50) came to 570 nM.

`CC1(C)CCC(n2ncc3c(NC(=O)c4ccc([N+](=O)[O-])s4)nc(-c4ccc(Cl)cc4F)nc32)CC1` [Compound 10-65, N-(6-(4-chloro-2-fluorophenyl)-1-(4,4-dimethylcyclohexyl)-1H-pyrazolo[3,4-d]pyrimidin-4-yl)-5-nitrothiophene-2-carboxamide]: the LC50 was 580 nM.

With `CC1(C)CCC(n2ncc3c(NC(=O)c4ccc([N+](=O)[O-])s4)nc(-c4ccc5c(c4)OCO5)nc32)CC1` [Compound 10-66, N-(6-(benzo[d][1,3]dioxol-5-yl)-1-(4,4-dimethylcyclohexyl)-1H-pyrazolo[3,4-d]pyrimidin-4-yl)-5-nitrothiophene-2-carboxamide], the LC50 came out at 610 nM.

With `CC1CC(C)CC(n2ncc3c(NC(=O)c4ccc([N+](=O)[O-])s4)nc(-c4ccc(F)cc4)nc32)C1` (stereo not shown) [Compound 10-67, N-(1-(3,5-dimethylcyclohexyl)-6-(4-fluorophenyl)-1H-pyrazolo[3,4-d]pyrimidin-4-yl)-5-nitrothiophene-2-carboxamide], the LC50 was 650 nM.

Turning to `CC1CC(C)CC(n2ncc3c(NC(=O)c4ccc([N+](=O)[O-])s4)nc(-c4ccc(F)nc4)nc32)C1` (stereo not shown) [Compound 10-68, N-(1-(3,5-dimethylcyclohexyl)-6-(6-fluoropyridin-3-yl)-1H-pyrazolo[3,4-d]pyrimidin-4-yl)-5-nitrothiophene-2-carboxamide], the LC50 came to 970 nM.

For the molecule `CC1CC(C)CC(n2ncc3c(NC(=O)c4ccc([N+](=O)[O-])s4)nc(-c4ccc(Cl)cc4)nc32)C1` (stereo not shown) [Compound 10-69, N-(6-(4-chlorophenyl)-1-(3,5-dimethylcyclohexyl)-1H-pyrazolo[3,4-d]pyrimidin-4-yl)-5-nitrothiophene-2-carboxamide], the LC50 was 860 nM.

As to `CC1CC(C)CC(n2ncc3c(NC(=O)c4ccc([N+](=O)[O-])s4)nc(-c4ccc(Cl)nc4)nc32)C1` (stereo not shown) [Compound 10-70, N-(6-(6-chloropyridin-3-yl)-1-(3,5-dimethylcyclohexyl)-1H-pyrazolo[3,4-d]pyrimidin-4-yl)-5-nitrothiophene-2-carboxamide], the LC50 was 960 nM.

Take `COC(=O)c1ccc(-c2nc(NC(=O)c3ccc([N+](=O)[O-])s3)c3cnn(C4CC(C)CC(C)C4)c3n2)cc1` (stereo not shown) [Compound 10-71, methyl 4-(1-(3,5-dimethylcyclohexyl)-4-(5-nitrothiophene-2-carboxamido)-1H-pyrazolo[3,4-d]pyrimidin-6-yl)benzoate]: the LC50 came out at 690 nM.
